Measured values as given in US20150141375A1 (priority 2009, published 2015).
Entries after “also recorded” stand apart in the source; their conditions may differ.

What was measured:
Variola major = assay: organism not typed; format: cell-based; settings: Vero 76
Vaccinia Virus = assay: microbe, parasite or virus in culture; format: cell-based; settings: Orthopoxvirus vaccinia, HFF
HCMV(AD169) = assay: In vitro potency against dsDNA viruses: HCMV; format: cell-based; settings: Human betaherpesvirus 5, AD169, MRC5; MRC-5
BK Virus = assay: In vitro potency against BK Virus in WI-38 cells; format: cell-based; settings: Betapolyomavirus hominis, WI-38
HSV-1 [1] = assay: In vitro potency against dsDNA viruses: HSV-1; format: cell-based; settings: Human alphaherpesvirus 1, MRC5; MRC-5
HHV-6 = assay: In vitro potency against dsDNA viruses: HHV-6; format: cell-based; settings: HSB2; HSB-2
Adenovirus = assay: In vitro activity against Adenovirus (HFF; AdV 5); format: cell-based; settings: unidentified adenovirus
HPV 18 = assay: In vitro potency against dsDNA viruses: HPV 18; format: cell-based; settings: HeLa
HPV 11 = assay: In vitro potency against dsDNA viruses: HPV 11; format: cell-based; settings: A-431; A431
EBV = assay: In vitro potency against dsDNA viruses: EBV; format: cell-based; settings: human gammaherpesvirus 4; Dardi
JC = assay: In vitro potency against dsDNA viruses: JC; format: cell-based, JC virus; settings: JC polyomavirus
[2] = Safety and pharmacokinetics of CMX001 in healthy volunteers; format: in vivo, human; settings: blood, Human, analyte = label
Description: An initial study was conducted to evaluate the safety and pharmacokinetics of CMX001 in healthy volunteers. The study consisted of a single dose arm (SD) and a multiple dose arm (MD). In the single dose arm 7 cohorts of 6 subjects were treated (4 subjects received active drug and 2 placebo). Enrollment was staggered as 2 subjects (one active, one placebo) followed by 4 subjects (Groups A and B). The estimated single doses for the two highest doses treated for a […] subject were 40 mg (0.6 mg/kg cohort 6) and 70 mg (1 mg/kg cohort 7). In the multiple dose arm, cohort 6MD received 0.1 mg/kg on Day 0, 6 and 12; Cohort 7MD received 0.2 mg/kg on Day 0, 6 and 12. Levels of cidofovir, CMX001 and CMX064 (major metabolite) were measured in blood and urine of subjects during the course of the study. Gastrointestinal (GI) monitoring of the subjects included (a) monitoring for clinical signs of GI adverse events, (b) monitoring for clinical symptoms using a visual Analog Scale, (c) monitoring for appetite loss/anorexia, nausea, vomiting, diarrhea, constipation and intestinal gas/bloating, (d) laboratory tests for fecal occult blood; serum electrolytes, urine specific gravity, BUN/creatinine ratio; serum albumin, and lipids, and (e) diagnostic studies (the Wireless capsule endoscopy (PillCam®, Given Imaging)).

PK comparison, mouse = format: in vivo; settings: 2 mg/kg, calculated from doses of 2 and 10 mg/kg, analyte = label, after CMX001
Description: (§1) Table 4 illustrates the PK comparison of CMX001 with CMX021 and CMX064 for mouse, rabbit and human.

PK comparison, rabbit = settings: in vivo, 2 mg/kg, calculated from doses of 5 and 10 mg/kg, analyte = label, after CMX001
Description: as §1

HCMV (AD169) = assay: HCMV real time array of viral transcripts; format: cell-based; settings: CDV 50 μM, GCV 15 μM, CMX001 0.5 μM; ANOVA P<0.05
HSV-1 [3] = assay: microbe, parasite or virus in culture; format: cell-based
HSV-2 = assay: In vitro efficacy against HSV-2 strains in HFF (CPE, plaque reduction); format: cell-based
Description: In vitro screening by CPE assay in human foreskin fibroblast (HFF) cells with confirmation using plaque reduction assays in HFF.

SVG cells = assay: SVG cell viability / cell number (MTS, alamar blue, hematoxylin); format: cell-based, human
Description: Quantification of cell viability using the MTS [3-(4,5-dimethylthiazol-2-yl)-5-(3-carboxymethoxyphenyl)-2-(4-sulfophenyl)-2H-tetrazolium] assay is based on bioactivity of mitochondrial dehydrogenase in living cells, which converts colorless tetrazolium salt to a colored formazan. MTS assays were performed according to manufacturer's instructions (Promega, Madison Wis.). Briefly, culture medium was removed from cells and 50 μL of PBS was added into each well of a 96 well plate. Ten μL of MTS reagent were added to wells of cells, and to a well without cells to determine background. Mixtures were incubated at 37° C. for 2 hours and the absorbance was measured at 490 nm. Trypan blue staining was performed on identical cultures to correlate MTS values with cell viability. The final values indicated are the result from 3 replicates. The value for the non-treated control was set to 100% and all other values are represented as a percentage of the control. Alamar blue (AB) assay.
Quantification of cell viability using the alamar blue (AB) assay was performed according to the manufacturer's instructions (Invitrogen, Gaithersburg, Md.). Briefly, 10 μL of AB reagent was added to each well of a 96 well dish containing cells or without cells to determine background. Mixtures were incubated at 37° C. for 6 hours and the absorbance measured at 570 nm using 600 nm as a reference wavelength. The value for the non-treated control was set to 100% and all other values are represented as a percentage of the control.
Because cell density in cultures processed for in situ DNA hybridization could not be measured by MTS or AB assays, cell density was approximated in cell cultures processed by quantifying hematoxylin staining intensity. Coverslips containing cells were prepared for in situ DNA hybridization and co-stained with hematoxylin. Subsequently, each coverslip was scanned and the hematoxylin intensities quantified using ImageJ. To determine the total cell number per coverslip, images were acquired at 10 random positions at 100× magnification. Cells were counted throughout each image and the average cell number per slide was generated by averaging counts from the 10 images for each experimental group. Exactly 900 images at 100× magnification cover the surface of an 18 mm×18 mm coverslip.

CMV = settings: person with renal failure, all observed time points after CMX001
BKV(Dunlop) = settings: RPTECs, same test system (Bernhoff et al., 2008), cited from earlier work
[4] = Vistide 5 mg/kg with probenecid; cited from earlier work
Mad-4 JCV = assay: JCV (Mad-4) initial infection of SVG cells (in situ DNA hybridization, qPCR)

Compound Nc1ccn(C[C@@H](CO)OCP(=O)(O)O)c(=O)n1 [Cidofovir, cidofovir, reference compound] has an EC50 (Variola major) of 27.3 µM, an EC50 (Vaccinia Virus) of 46 µM and an EC50 (HCMV(AD169)) of 0.38 µM. It also gave an EC50 (BK Virus) of 115 µM, an EC50 (HSV-1 [1]) of 15 µM and an EC50 (HHV-6) of 0.2 µM. The IC50 (Adenovirus) was 1.3 µM, the EC50 (Adenovirus; HFF) was 1.3 µM and the EC50 (HPV 18) was 516 µM. The EC50 (HPV 11) was 716 µM, the EC50 (EBV) was greater than 170 µM and the EC50 (JC) was 0.38 µM. The AUC ([2]; 0.05 mg/kg, CMX001 0.050 mg/kg) was 33.3 ng·h/mL, the Cmax ([2]; 0.05 mg/kg, CMX001 0.050 mg/kg) was 1.51 ng/mL and the AUC ([2]; 0.1 mg/kg, CMX001 0.100 mg/kg) was 125 ng·h/mL. The Cmax ([2]; 0.1 mg/kg, CMX001 0.100 mg/kg) was 3.44 ng/mL, the AUC ([2]; 0.2 mg/kg, CMX001 0.200 mg/kg) was 190 ng·h/mL and the Cmax ([2]; 0.2 mg/kg, CMX001 0.200 mg/kg) was 5.41 ng/mL. For the same compound, the AUC ([2]; 0.4 mg/kg, CMX001 0.400 mg/kg) was 445 ng·h/mL, the Cmax ([2]; 0.4 mg/kg, CMX001 0.400 mg/kg) was 10.4 ng/mL and the AUC ([2]; 0.6 mg/kg, CMX001 0.600 mg/kg) was 519 ng·h/mL. The Cmax ([2]; 0.6 mg/kg, CMX001 0.600 mg/kg) was 12.2 ng/mL, the Cmax (PK comparison, mouse) was “BQL-” and the AUC (PK comparison, rabbit) was 50.1 ng·h/mL. For the same compound, the Cmax (PK comparison, rabbit) was 5.44 ng/mL, the “levels of viral transcripts” value (HCMV (AD169)) was “Significant reductions in levels of most viral transcripts” and the EC50 (HSV-1 [3]; Human alphaherpesvirus 1, strain E-377) was 5.5 ± 6 µM. The EC50 (HSV-1 [3]; Human alphaherpesvirus 1, strain F) was 1.5 ± 0.4 µM, the EC50 (HSV-1 [3]; Human alphaherpesvirus 1, strain HL-3) was 3.6 ± 3 µM and the EC50 (HSV-2; Human alphaherpesvirus 2, strain G) was 5.5 ± 2.1 µM. The EC50 (HSV-2; Human alphaherpesvirus 2, strain MS) was 5.1 ± 5.4 µM, the EC50 (HSV-2; Human alphaherpesvirus 2, strain SR) was 5.9 ± 5.9 µM and the “cytotoxicity (total cell number)” value (SVG cells; CDV 0.01 to 0.1 μM) was “did not cause cytotoxicity at any concentration tested”. The “cell density and viability” value (SVG cells; CDV 0.1 to 1 μM, 4 days) was “did not elicit any visible changes”, the “plasma concentrations of cidofovir” value (CMV) was “below 250 ng/mL” and the “IC-90 of CDV, BKV replication” value (BKV(Dunlop)) was 40 µg/mL. The IC90 (BKV(Dunlop); read-out: IC-90 of CDV, BKV replication) was 127 µM, the “peak plasma concentrations of cidofovir” value [4] was 19,600 ng/mL and the “reduction in JCV DNA containing cells” value (Mad-4 JCV; CDV 0.01 to 0.1 μM, listed as CDV) was “did not elicit any significant reduction; also recorded: did not show any effect on JCV replication”. The “copy number of JCV genomes (qPCR)” value (Mad-4 JCV; CDV, any concentration tested) was “had no affect”.
